Reference: PMC10978996 (Nature Communications, 2024)

What was measured:
[1] = target: T1, PsiM (Psilocybe cubensis, UniProt P0DPA9); assay: isothermal titration calorimetry; assay type: binding
T1 construct: full length, E. coli; Crystals: pJF45, His6 cut off by thrombin, vector-derived TEV site kept at N-terminus; Wild-type ITC and activity: His6-tagged without thrombin/TEV sites (pFB13); N247M: made from pJF45 template in pET-28a

[2] = target: T1, PsiM; assay: UHPLC-MS methyltransferase assay, Michaelis-Menten; assay type: biochemical; details: 1 mM SAM, 50 mM Tris pH 8.4, 28 °C; first methyl transfer
[3] = system: CNCCc1c[nH]c2cccc(OP(=O)(O)O)c12; assay: UHPLC-MS methyltransferase assay, Michaelis-Menten; assay type: biochemical, Psilocybe cubensis; details: 1 mM SAM, 50 mM Tris pH 8.4, 28 °C, second methyl transfer

Molecule | Kd [1] | Km [2] | Km [3] | kcat [3]
Nc1ncnc2c1ncn2[C@@H]1O[C@H](CSCC[C@H](N)C(=O)O)[C@@H](O)[C@H]1O [SAH] | 66 ± 49 µM |  |  | 
CNCCc1c[nH]c2cccc(OP(=O)(O)O)c12 [baeocystin] | 77.2 ± 3.5 µM |  |  | 
NCCc1c[nH]c2cccc(OP(=O)(O)O)c12 [norbaeocystin] | 35.7 ± 5.4 µM | 575 ± 100 µM |  | 
PsiM (Psilocybe cubensis) |  |  | 492 ± 154 µM | 0.06 ± 0.01 min⁻¹
